Here are results for 17 compounds from patent US20250136638A1, “9(11)-UNSATURATED NEUROACTIVE STEROIDS AND THEIR METHODS OF USE” (SAGE THERAPEUTICS, INC., priority 2018, published 2025).

Molecules are shown by their SMILES.

The target of the experiment is rat brain cortical membranes ([35S]-TBPS binding, GABA receptor complex). Kind of experiment: Steroid inhibition of [35S]-TBPS binding. The conditions noted are these: 3 nM [35S]-TBPS, in the presence of 5 mM GABA. How it is done:
[^35S]-t-Butylbicyclophosphorothionate (TBPS) binding assays using rat brain cortical membranes in the presence of 5 mM GABA has been described (Gee et al, J. Pharmacol. Exp. Ther. 1987, 241, 346-353; Hawkinson et al, Mol. Pharmacol. 1994, 46, 977-985; Lewin, A. H et al., Mol. Pharmacol. 1989, 35, 189-194).
Briefly, cortices are rapidly removed following decapitation of carbon dioxide-anesthetized Sprague-Dawley rats (200-250 g). The cortices are homogenized in 10 volumes of ice-cold 0.32 M sucrose using a glass/teflon homogenizer and centrifuged at 1500×g for 10 min at 4° C. The resultant supernatants are centrifuged at 10,000×g for 20 min at 4° C. to obtain the P2 pellets. The P2 pellets are resuspended in 200 mM NaCl/50 mM Na—K phosphate pH 7.4 buffer and centrifuged at 10,000×g for 10 min at 4° C. This washing procedure is repeated twice and the pellets are resuspended in 10 volumes of buffer. Aliquots ([…]) of the membrane suspensions are incubated with 3 nM [^35S]-TBPS and […] aliquots of test drug dissolved in dimethyl sulfoxide (DMSO) (final 0.5%) in the presence of 5 mM GABA. The incubation is brought to a final volume of 1.0 mL with buffer. Nonspecific binding is determined in the presence of […] and ranged from 15 to 25%. Following a 90 min incubation at room temp, the assays are terminated by filtration through glass fiber filters (Schleicher and Schuell No. 32) using a cell harvester (Brandel) and rinsed three times with ice-cold buffer. Filter bound radioactivity is measured by liquid scintillation spectrometry. Non-linear curve fitting of the overall data for each drug averaged for each concentration is done using Prism (GraphPad). […] The concentration of test compound producing 50% inhibition (IC50) of specific binding and the maximal extent of inhibition (Imax) are determined for the individual experiments with the same model used for the overall data and then the means±SEM.s of the individual experiments are calculated.
Various compounds are or can be screened to determine their potential as modulators of [^35S]-TBPS binding in vitro. These assays are or can be performed in accordance with the above.

In the case of `CCOC[C@@]1(O)CC[C@]2(C)C3=CC[C@]4(C)[C@@H](C(C)=O)CC[C@H]4[C@@H]3CC[C@H]2C1` [Example 14, 1-((3R,5S,8S,10S,13S,14S,17S)-3-(ethoxymethyl)-3-hydroxy-10,13-dimethyl-2,3,4,5,6,7,8,10,12,13,14,15,16,17-tetradecahydro-1H-cyclopenta[a]phenanthren-17-yl)ethan-1-one], the IC50 – broadly, the concentration needed to halve the response being measured – is 1000 to 10000 nM. As for `C[C@@]1(O)CC[C@]2(C)C3=CC[C@]4(C)[C@@H](C(=O)Cn5cc(C#N)cn5)CC[C@H]4[C@@H]3CC[C@H]2C1` [Example 2, 1-(2-((3R,5S,8S,10S,13S,14S,17S)-3-hydroxy-3,10,13-trimethyl-2,3,4,5,6,7,8,10,12,13,14,15,16,17-tetradecahydro-1H-cyclopenta[a]phenanthren-17-yl)-2-oxoethyl)-1H-pyrazole-4-carbonitrile], the IC50 was in the range of 10 to 100 nM. The result for `COC[C@@]1(O)CC[C@]2(C)C3=CC[C@]4(C)[C@@H](C(=O)Cn5cc(C#N)cn5)CC[C@H]4[C@@H]3CC[C@@H]2C1` [Example 17, 1-(2-((3R,5R,8S,10S,13S,14S,17S)-3-hydroxy-3-(methoxymethyl)-10,13-dimethyl-2,3,4,5,6,7,8,10,12,13,14,15,16,17-tetradecahydro-1H-cyclopenta[a]phenanthren-17-yl)-2-oxoethyl)-1H-pyrazole-4-carbonitrile] reads 10 to 100 nM; that for `C[C@@]1(O)CC[C@]2(C)C3=CC[C@]4(C)[C@@H](C(=O)Cn5ccnn5)CC[C@H]4[C@@H]3CC[C@@H]2C1` [Example 12, 1-((3R,5R,8S,10S,13S,14S,17S)-3-hydroxy-3,10,13-trimethyl-2,3,4,5,6,7,8,10,12,13,14,15,16,17-tetradecahydro-1H-cyclopenta[a]phenanthren-17-yl)-2-(1H-1,2,3-triazol-1-yl)ethan-1-one], 100 to 1000 nM; that for `Cc1nnnn1CC(=O)[C@H]1CC[C@H]2[C@@H]3CC[C@H]4C[C@](C)(O)CC[C@]4(C)C3=CC[C@]12C` [Example 5, 1-((3R,5S,8S,10S,13S,14S,17S)-3-hydroxy-3,10,13-trimethyl-2,3,4,5,6,7,8,10,12,13,14,15,16,17-tetradecahydro-1H-cyclopenta[a]phenanthren-17-yl)-2-(5-methyl-1H-tetrazol-1-yl)ethan-1-one], 100 to 1000 nM. `C[C@@]1(O)CC[C@]2(C)C3=CC[C@]4(C)[C@@H](C(=O)Cn5nccn5)CC[C@H]4[C@@H]3CC[C@@H]2C1` [Example 13, 1-((3R,5R,8S,10S,13S,14S,17S)-3-hydroxy-3,10,13-trimethyl-2,3,4,5,6,7,8,10,12,13,14,15,16,17-tetradecahydro-1H-cyclopenta[a]phenanthren-17-yl)-2-(2H-1,2,3-triazol-2-yl)ethan-1-one]: the IC50 is 10 to 100 nM. As for `CC(=O)[C@H]1CC[C@H]2[C@@H]3CC[C@@H]4C[C@](C)(O)CC[C@]4(C)C3=CC[C@]12C` [Example 8, 1-((3R,5R,8S,10S,13S,14S,17S)-3-hydroxy-3,10,13-trimethyl-2,3,4,5,6,7,8,10,12,13,14,15,16,17-tetradecahydro-1H-cyclopenta[a]phenanthren-17-yl)ethan-1-one], the IC50 lay within 10 to 100 nM. On to `C[C@@]1(O)CC[C@]2(C)C3=CC[C@]4(C)[C@@H](C(=O)Cn5cc(C#N)cn5)CC[C@H]4[C@@H]3CC[C@@H]2C1` [Example 9, 1-(2-((3R,5R,8S,10S,13S,14S,17S)-3-hydroxy-3,10,13-trimethyl-2,3,4,5,6,7,8,10,12,13,14,15,16,17-tetradecahydro-1H-cyclopenta[a]phenanthren-17-yl)-2-oxoethyl)-1H-pyrazole-4-carbonitrile], for which the IC50 lay in the range of 10 to 100 nM.

Regarding `C[C@@]1(O)CC[C@]2(C)C3=CC[C@]4(C)[C@@H](C(=O)Cn5nccn5)CC[C@H]4[C@@H]3CC[C@H]2C1` [Example 7, 1-((3R,5S,8S,10S,13S,14S,17S)-3-hydroxy-3,10,13-trimethyl-2,3,4,5,6,7,8,10,12,13,14,15,16,17-tetradecahydro-1H-cyclopenta[a]phenanthren-17-yl)-2-(2H-1,2,3-triazol-2-yl)ethan-1-one], the IC50 was in the range of 100 to 1000 nM. On to `CC(=O)[C@H]1CC[C@H]2[C@@H]3CC[C@H]4C[C@](C)(O)CC[C@]4(C)C3=CC[C@]12C` [Example 1, 1-((3R,5S,8S,10S,13S,14S,17S)-3-hydroxy-3,10,13-trimethyl-2,3,4,5,6,7,8,10,12,13,14,15,16,17-tetradecahydro-1H-cyclopenta[a]phenanthren-17-yl)ethan-1-one], for which the IC50 was in the range of 100 to 1000 nM. The result for `C[C@@]1(O)CC[C@]2(C)C3=CC[C@]4(C)[C@@H](C(=O)Cn5ccnn5)CC[C@H]4[C@@H]3CC[C@H]2C1` [Example 6, 1-((3R,5S,8S,10S,13S,14S,17S)-3-hydroxy-3,10,13-trimethyl-2,3,4,5,6,7,8,10,12,13,14,15,16,17-tetradecahydro-1H-cyclopenta[a]phenanthren-17-yl)-2-(1H-1,2,3-triazol-1-yl)ethan-1-one] reads 100 to 1000 nM; that for `Cc1nnn(CC(=O)[C@H]2CC[C@H]3[C@@H]4CC[C@@H]5C[C@](C)(O)CC[C@]5(C)C4=CC[C@]23C)n1` [Example 10, 1-((3R,5R,8S,10S,13S,14S,17S)-3-hydroxy-3,10,13-trimethyl-2,3,4,5,6,7,8,10,12,13,14,15,16,17-tetradecahydro-1H-cyclopenta[a]phenanthren-17-yl)-2-(5-methyl-2H-tetrazol-2-yl)ethan-1-one], 10 to 100 nM; that for `C[C@@]1(O)CC[C@]2(C)C3=CC[C@]4(C)[C@H](C(=O)Cn5cc(C#N)cn5)CC[C@H]4[C@@H]3CC[C@H]2C1` [Example 3, 1-(2-((3R,5S,8S,10S,13S,14S,17R)-3-hydroxy-3,10,13-trimethyl-2,3,4,5,6,7,8,10,12,13,14,15,16,17-tetradecahydro-1H-cyclopenta[a]phenanthren-17-yl)-2-oxoethyl)-1H-pyrazole-4-carbonitrile], 1000 to 10000 nM.

As for `COC[C@@]1(O)CC[C@]2(C)C3=CC[C@]4(C)[C@@H](C(C)=O)CC[C@H]4[C@@H]3CC[C@@H]2C1` [Example 16, 1-((3R,5R,8S,10S,13S,14S,17S)-3-hydroxy-3-(methoxymethyl)-10,13-dimethyl-2,3,4,5,6,7,8,10,12,13,14,15,16,17-tetradecahydro-1H-cyclopenta[a]phenanthren-17-yl)ethan-1-one], the IC50 fell in the range of 100 to 1000 nM. The result for `CCOC[C@@]1(O)CC[C@]2(C)C3=CC[C@]4(C)[C@@H](C(C)=O)CC[C@H]4[C@@H]3CC[C@@H]2C1` [Example 15, 1-((3R,5R,8S,10S,13S,14S,17S)-3-(ethoxymethyl)-3-hydroxy-10,13-dimethyl-2,3,4,5,6,7,8,10,12,13,14,15,16,17-tetradecahydro-1H-cyclopenta[a]phenanthren-17-yl)ethan-1-one] reads 100 to 1000 nM. Regarding `Cc1nnnn1CC(=O)[C@H]1CC[C@H]2[C@@H]3CC[C@@H]4C[C@](C)(O)CC[C@]4(C)C3=CC[C@]12C` [Example 11, 1-((3R,5R,8S,10S,13S,14S,17S)-3-hydroxy-3,10,13-trimethyl-2,3,4,5,6,7,8,10,12,13,14,15,16,17-tetradecahydro-1H-cyclopenta[a]phenanthren-17-yl)-2-(5-methyl-1H-tetrazol-1-yl)ethan-1-one], the IC50 lay in the range of 100 to 1000 nM. As to `Cc1nnn(CC(=O)[C@H]2CC[C@H]3[C@@H]4CC[C@H]5C[C@](C)(O)CC[C@]5(C)C4=CC[C@]23C)n1` [Example 4, 1-((3R,5S,8S,10S,13S,14S,17S)-3-hydroxy-3,10,13-trimethyl-2,3,4,5,6,7,8,10,12,13,14,15,16,17-tetradecahydro-1H-cyclopenta[a]phenanthren-17-yl)-2-(5-methyl-2H-tetrazol-2-yl)ethan-1-one], the IC50 lay within 100 to 1000 nM.
